The results in this text go back to patent US10004732B2 (Novartis AG, priority 2014, dated 2018).

Structures can show the parent of a compound that is named as a salt. Where two headings read alike, the source gives them in different places.

One data set concerns the target PI 3-kinase alpha (Homo sapiens, UniProt P42336). The experiment in a line: Kinase Glo Luminescent Kinase Assay (Kglo), assay A. The following applies: read-out: Assay A PI3Kα IC50. The format is biochemical. (Kinase-Glo reads ATP consumption through a luciferase reaction.)
Another data set concerns the target PI 3-kinase beta (Homo sapiens, UniProt P42338). The experiment in a line: Kinase Glo Luminescent Kinase Assay (Kglo), assay B. Particulars: read-out: Assay B PI3Kβ IC50. The format is biochemical.
The target of the next data set is Vps34 (Homo sapiens, UniProt Q8NEB9). The experiment in a line: Kinase Glo Luminescent Kinase Assay (Kglo), assay C. Particulars: read-out: Assay C VPS34 IC50. The class given is biochemical.
For the next data set, the target named is PI 4-kinase beta (Homo sapiens, UniProt Q9UBF8). The data set can be described thus: Kinase Glo Luminescent Kinase Assay (Kglo), assay D. The class given is biochemical. Particulars: read-out: Assay D PI4Kβ IC50.
In the next data set the target is PI 3-kinase gamma (Homo sapiens, UniProt P48736). The data set can be described thus: TR-FRET Adapta assay, assay E. The class given is biochemical. The following applies: read-out: Assay E PI3Kγ IC50.
The target of the next data set is mTOR (Homo sapiens, UniProt P42345). The data set can be described thus: Lanthascreen kinase binding assay, assay G. Particulars: read-out: Assay G mTOR IC50.
In the next data set the target is PI 3-kinase delta (Homo sapiens, UniProt O00329). The experiment in a line: TR-FRET Adapta assay, assay F. Background: In TR-FRET formats the signal depends on donor and acceptor labels being close together.
The nature of data set [1]: Microsomal clearance assay (M). Particulars: intrinsic clearance in rat liver microsomes. In general terms: Liver microsomes are a subcellular fraction often used to study metabolism.
Protocol: The experiments were performed in 96-well glass plates at 37° C. on an automated Tecan EVO platform. Test compounds at a concentration of 10 mM in pure DMSO were diluted 1:1000 in water to 10 μM. […] Reactions were initiated by the addition of 150 μL of a cofactor solution containing 2 mM NADPH.

Chain of PI 3-kinase alpha (P42336 whole entry): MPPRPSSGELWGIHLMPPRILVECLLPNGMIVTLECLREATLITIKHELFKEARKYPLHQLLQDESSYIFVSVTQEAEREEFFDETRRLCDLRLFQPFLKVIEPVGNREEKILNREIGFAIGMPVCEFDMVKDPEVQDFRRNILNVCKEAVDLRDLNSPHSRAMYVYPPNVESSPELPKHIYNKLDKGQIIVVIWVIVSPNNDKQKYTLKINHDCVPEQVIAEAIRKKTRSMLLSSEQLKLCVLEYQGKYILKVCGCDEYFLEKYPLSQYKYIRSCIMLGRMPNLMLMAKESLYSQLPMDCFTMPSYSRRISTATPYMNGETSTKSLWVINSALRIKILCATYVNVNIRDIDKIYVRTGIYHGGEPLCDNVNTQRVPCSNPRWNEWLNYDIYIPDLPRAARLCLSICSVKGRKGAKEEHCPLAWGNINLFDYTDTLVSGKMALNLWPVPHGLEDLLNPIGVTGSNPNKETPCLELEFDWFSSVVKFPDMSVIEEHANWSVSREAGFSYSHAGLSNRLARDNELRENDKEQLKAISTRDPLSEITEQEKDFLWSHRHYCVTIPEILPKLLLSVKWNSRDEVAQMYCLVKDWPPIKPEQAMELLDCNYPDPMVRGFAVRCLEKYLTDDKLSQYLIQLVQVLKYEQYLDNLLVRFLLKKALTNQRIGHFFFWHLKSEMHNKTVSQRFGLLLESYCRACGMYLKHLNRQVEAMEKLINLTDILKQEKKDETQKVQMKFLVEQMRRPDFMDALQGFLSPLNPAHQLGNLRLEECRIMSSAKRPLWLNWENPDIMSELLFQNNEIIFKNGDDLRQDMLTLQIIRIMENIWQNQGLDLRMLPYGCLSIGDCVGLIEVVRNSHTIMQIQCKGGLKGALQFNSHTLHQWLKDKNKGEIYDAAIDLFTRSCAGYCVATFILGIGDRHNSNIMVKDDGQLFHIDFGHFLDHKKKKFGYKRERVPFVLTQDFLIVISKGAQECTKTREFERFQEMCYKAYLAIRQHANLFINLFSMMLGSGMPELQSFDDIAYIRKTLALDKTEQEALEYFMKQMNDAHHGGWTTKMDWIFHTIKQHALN
Chain of PI 3-kinase delta (O00329 whole entry): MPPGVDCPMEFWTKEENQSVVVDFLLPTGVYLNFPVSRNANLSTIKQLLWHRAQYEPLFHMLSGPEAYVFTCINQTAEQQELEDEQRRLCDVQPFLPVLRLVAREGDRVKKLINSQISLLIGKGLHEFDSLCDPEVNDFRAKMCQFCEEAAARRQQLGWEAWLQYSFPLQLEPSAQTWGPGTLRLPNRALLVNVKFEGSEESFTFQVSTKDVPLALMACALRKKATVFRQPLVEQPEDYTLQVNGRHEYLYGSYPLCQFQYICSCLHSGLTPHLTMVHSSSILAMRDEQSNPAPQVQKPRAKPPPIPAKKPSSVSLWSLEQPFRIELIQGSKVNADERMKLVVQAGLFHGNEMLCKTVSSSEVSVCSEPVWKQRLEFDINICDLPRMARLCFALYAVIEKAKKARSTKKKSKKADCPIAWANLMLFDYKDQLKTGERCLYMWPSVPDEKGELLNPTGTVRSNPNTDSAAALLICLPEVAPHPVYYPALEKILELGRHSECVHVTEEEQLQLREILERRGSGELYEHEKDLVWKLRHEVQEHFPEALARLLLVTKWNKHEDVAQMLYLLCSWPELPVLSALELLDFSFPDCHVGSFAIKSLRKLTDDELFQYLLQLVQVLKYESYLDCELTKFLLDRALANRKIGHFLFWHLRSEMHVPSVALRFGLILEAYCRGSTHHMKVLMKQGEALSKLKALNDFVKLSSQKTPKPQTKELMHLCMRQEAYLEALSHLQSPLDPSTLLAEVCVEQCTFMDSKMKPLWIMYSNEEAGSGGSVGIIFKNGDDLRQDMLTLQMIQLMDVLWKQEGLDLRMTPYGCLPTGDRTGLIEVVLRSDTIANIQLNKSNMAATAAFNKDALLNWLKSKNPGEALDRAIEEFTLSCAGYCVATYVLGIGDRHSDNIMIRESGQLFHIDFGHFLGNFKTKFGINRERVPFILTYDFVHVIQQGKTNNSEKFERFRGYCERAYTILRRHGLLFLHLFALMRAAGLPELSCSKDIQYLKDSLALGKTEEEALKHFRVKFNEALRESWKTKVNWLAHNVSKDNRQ
Chain of PI 3-kinase delta (P27986 461-568 partner): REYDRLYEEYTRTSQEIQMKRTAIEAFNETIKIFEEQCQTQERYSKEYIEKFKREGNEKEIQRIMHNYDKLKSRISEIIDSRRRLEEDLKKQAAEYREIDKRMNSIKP
Chain of Vps34 (Q8NEB9 whole entry, species assumed): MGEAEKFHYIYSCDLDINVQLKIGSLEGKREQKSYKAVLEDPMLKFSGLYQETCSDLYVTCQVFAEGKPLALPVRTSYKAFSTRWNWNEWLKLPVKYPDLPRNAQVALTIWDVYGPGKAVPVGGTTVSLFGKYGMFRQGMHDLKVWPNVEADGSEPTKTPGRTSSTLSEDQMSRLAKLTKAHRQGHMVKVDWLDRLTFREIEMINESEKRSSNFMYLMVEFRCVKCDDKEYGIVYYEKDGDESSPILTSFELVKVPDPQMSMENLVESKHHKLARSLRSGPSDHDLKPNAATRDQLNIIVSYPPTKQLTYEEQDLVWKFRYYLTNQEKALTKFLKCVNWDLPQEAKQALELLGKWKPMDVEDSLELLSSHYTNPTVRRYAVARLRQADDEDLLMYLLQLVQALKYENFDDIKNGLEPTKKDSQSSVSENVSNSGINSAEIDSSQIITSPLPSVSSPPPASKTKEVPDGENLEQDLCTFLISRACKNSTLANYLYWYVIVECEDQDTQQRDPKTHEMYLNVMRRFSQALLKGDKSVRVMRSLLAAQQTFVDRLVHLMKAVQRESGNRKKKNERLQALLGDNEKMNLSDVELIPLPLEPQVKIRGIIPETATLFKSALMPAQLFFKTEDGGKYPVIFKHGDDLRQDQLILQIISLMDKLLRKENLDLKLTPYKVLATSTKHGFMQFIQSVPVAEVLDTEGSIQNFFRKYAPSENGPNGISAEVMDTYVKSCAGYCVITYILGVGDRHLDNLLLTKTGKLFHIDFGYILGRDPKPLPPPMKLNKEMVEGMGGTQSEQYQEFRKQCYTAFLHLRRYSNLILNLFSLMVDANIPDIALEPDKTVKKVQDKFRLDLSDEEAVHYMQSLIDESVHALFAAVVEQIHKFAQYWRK
Chain of PI 3-kinase gamma (P48736 whole entry): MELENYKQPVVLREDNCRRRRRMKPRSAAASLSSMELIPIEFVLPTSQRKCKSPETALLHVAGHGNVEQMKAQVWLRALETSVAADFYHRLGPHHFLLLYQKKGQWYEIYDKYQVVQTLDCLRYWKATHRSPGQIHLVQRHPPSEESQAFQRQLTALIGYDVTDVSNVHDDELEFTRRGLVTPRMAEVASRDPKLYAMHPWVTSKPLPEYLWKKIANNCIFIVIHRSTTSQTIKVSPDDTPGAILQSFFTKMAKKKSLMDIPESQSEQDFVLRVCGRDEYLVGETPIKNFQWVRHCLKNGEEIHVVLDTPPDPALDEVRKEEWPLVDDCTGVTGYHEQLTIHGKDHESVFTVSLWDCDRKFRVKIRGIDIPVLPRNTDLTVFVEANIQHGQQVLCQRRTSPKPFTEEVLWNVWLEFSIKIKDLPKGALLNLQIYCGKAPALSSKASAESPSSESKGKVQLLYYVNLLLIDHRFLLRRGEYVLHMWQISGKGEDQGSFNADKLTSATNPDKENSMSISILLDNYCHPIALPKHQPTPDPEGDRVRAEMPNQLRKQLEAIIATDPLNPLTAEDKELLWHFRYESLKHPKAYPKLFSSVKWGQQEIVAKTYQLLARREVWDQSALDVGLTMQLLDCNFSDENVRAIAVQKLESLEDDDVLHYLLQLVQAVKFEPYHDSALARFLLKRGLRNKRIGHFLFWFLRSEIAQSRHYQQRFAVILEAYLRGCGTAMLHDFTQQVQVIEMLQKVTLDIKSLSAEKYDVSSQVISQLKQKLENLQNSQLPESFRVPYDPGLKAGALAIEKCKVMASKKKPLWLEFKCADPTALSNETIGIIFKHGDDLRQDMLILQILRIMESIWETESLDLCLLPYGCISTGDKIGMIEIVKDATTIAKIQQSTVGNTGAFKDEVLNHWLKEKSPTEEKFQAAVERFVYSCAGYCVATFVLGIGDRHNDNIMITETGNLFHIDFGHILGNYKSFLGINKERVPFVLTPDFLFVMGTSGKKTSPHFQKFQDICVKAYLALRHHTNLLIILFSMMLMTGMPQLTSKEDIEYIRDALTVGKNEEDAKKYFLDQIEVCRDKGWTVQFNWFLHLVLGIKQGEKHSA
Chain of PI 4-kinase beta (Q9UBF8 whole entry): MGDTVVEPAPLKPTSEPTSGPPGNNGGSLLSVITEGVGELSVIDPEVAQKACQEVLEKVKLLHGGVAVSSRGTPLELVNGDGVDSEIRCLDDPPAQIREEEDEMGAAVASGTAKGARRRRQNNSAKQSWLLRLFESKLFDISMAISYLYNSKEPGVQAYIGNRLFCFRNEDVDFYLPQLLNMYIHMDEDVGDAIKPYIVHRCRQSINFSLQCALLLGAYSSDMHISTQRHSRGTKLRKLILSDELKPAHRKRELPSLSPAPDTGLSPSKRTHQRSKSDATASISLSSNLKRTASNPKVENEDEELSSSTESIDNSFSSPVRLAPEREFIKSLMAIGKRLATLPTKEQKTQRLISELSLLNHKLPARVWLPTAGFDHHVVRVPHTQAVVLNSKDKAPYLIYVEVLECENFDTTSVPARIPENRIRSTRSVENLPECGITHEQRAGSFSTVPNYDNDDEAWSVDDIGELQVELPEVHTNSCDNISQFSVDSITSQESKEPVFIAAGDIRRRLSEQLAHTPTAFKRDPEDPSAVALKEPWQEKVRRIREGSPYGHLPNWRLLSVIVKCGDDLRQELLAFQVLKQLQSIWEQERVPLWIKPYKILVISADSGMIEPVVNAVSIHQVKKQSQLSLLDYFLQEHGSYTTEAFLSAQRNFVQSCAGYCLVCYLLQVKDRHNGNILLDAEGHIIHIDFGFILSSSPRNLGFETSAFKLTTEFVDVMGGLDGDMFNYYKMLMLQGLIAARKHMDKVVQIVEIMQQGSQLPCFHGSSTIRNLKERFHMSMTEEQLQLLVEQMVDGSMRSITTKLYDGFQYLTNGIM
Protocol for PI 3-kinase delta: TR-FRET Adapta Assay for PI 3-Kinase Gamma (E), PI 3-Kinase Delta (F)
The TR-FRET Adapta™ Universal Kinase Assay Kit was purchased from Invitrogen Corporation (Carlsbad/CA, USA) (Cat. No. PV5099).
PIK3CD substrate phosphatidylinositol (PI) was obtained from Invitrogen (vesicules consisting of 2 mM phosphatidylinositol (PI) in 50 mM HEPES pH7.5; Cat. No. PV5371). PIK3CG substrate phosphatidylinositol-4,5-bisphosphate (PIP(4,5)2 was obtained from Invitrogen (PIP2:PS large unilamellar vesicules consisting of 1 mM PIP2: 19 mM PS in 50 mM HEPES pH7.5, 3 mM MgCl2, 1 mM EGTA; Cat. No. PV5100).
Time-Resolved Fluorescence Resonance Energy Transfer (TR-FRET) is a technology based on energy transfer between two adjacent dyes, from an excited electron in one dye (the donor) to an electron of an adjacent dye (the acceptor) through resonance, then released as a photon. This energy transfer is detected by an increase in the fluorescence emission of the acceptor, and a decrease in the fluorescence emission of the donor. TR-FRET assays for protein kinases use a long-lifetime lanthanide Terbium or Europium chelates as the donor species which overcome interference from compound autofluorescence or light scatter from precipitated compounds, by introducing a delay after excitation by a flashlamp excitation source. Results are often expressed as a ratio of the intensities of the acceptor and donor fluorophores. The ratiometric nature of such a value corrects for differences in assay volumes between wells, as well as corrects for quenching effects due to colored compounds. The Adapta™ assay can be divided into two phases: a kinase reaction phase and an ADP detection phase. In the kinase reaction phase, all kinase reaction components are added to the well and the reaction is allowed to incubate for a set period of time specific for each kinase. […] In the presence of an inhibitor, the amount of ADP formed by the kinase reaction is reduced, and the resulting intact antibody-tracer interaction maintains a high TR-FRET signal.
50 nL of compound dilutions were dispensed onto white 384-well small volume polystyrene plate. Then 5 μL of either PI 3-kinase gamma or PI 3-kinase delta and lipid substrate (PI or PIP2:PS) followed by 5 μL of ATP (final assay volume 10 μL) are incubated at RT. The standard reaction buffer for the Adapta™ TR-FRET assay contained 10 mM Tris-HCl pH 7.5, 3 mM MgCl2, 50 mM NaCl, 1 mM DTT, 0.05% CHAPS 3-[(3-cholamidopropyl)dimethylammonio]-1-propanesulfonate).
Data are analyzed using Excel fit software or Graphpad Prism. IC50 values were derived by fitting a sigmoidal dose-response curve to a plot of assay readout over inhibitor concentration. All fits were performed with the program XLfit4 (ID Business Solutions, Guildford, UK). […] All fits were performed with the program XLfit4 (ID Business Solutions, Guildford, UK).
Protocol for mTOR: Lanthascreen™ Kinase Binding Assay for mTOR (G)
Binding of an inhibitor to the kinase competes for binding with the tracer, resulting in a loss of FRET.
50 nL of compound dilutions were dispensed onto white 384-well small volume polystyrene plate.

As to `Cc1cn(-c2nc(-c3cc(S(=O)(=O)NCC(C)(C)O)ccc3C)cnc2N)c(C)n1` [Example 50, 3-(5-Amino-6-(2,4-dimethyl-1H-imidazol-1-yl)pyrazin-2-yl)-N-(2-hydroxy-2-methylpropyl)-4-methylbenzenesulfonamide], the IC50 – broadly, the concentration that gives 50% inhibition – on PI 3-kinase alpha was 2500 nM; at PI 3-kinase beta, 2800 nM; at Vps34 it was > 10000 nM; on PI 4-kinase beta, > 10000 nM; on PI 3-kinase gamma, 850 nM; at mTOR, > 10000 nM. The IC50 on PI 3-kinase delta (read-out: Assay F PI3Kδ IC50) was > 10000 nM. Moreover, the “Assay M RLM CI(int)” value in data set [1] is 28 µL/min/mg.

`Cc1nnc(-c2nc(-c3cc(S(=O)(=O)NCC(C)(C)O)ccc3C)cnc2N)o1` [Example 90, 3-(5-Amino-6-(5-methyl-1,3,4-oxadiazol-2-yl)pyrazin-2-yl)-N-(2-hydroxy-2-methylpropyl)-4-methylbenzenesulfonamide]: the IC50 at PI 3-kinase alpha is 2100 nM; at PI 3-kinase beta it was 940 nM; on Vps34, > 10000 nM; on PI 4-kinase beta it was > 10000 nM; on PI 3-kinase gamma, 78 nM; at mTOR, > 10000 nM. In addition, the 50% inhibitory concentration (IC50) on PI 3-kinase delta (read-out: Assay F PI3Kδ IC50) came to 2000 nM. Moreover, the “Assay M RLM CI(int)” value in data set [1] was found to be 19 µL/min/mg.

On to `Cc1ccc(S(=O)(=O)NCC(C)(C)O)cc1-c1cnc(N)c(-c2noc(C3CC3)n2)n1` [Example 91, 3-(5-Amino-6-(5-cyclopropyl-1,2,4-oxadiazol-3-yl)pyrazin-2-yl)-N-(2-hydroxy-2-methylpropyl)-4-methylbenzenesulfonamide], for which the IC50 at PI 3-kinase alpha is 2350 nM; at PI 3-kinase beta it was 2550 nM; on Vps34, > 9550 nM; on PI 4-kinase beta, > 9550 nM; on PI 3-kinase gamma, 270 nM; on mTOR, > 9550 nM. Besides, on PI 3-kinase delta (read-out: Assay F PI3Kδ IC50), the IC50 was 2100 nM. The “Assay M RLM CI(int)” value in data set [1] is 46 µL/min/mg.

For the compound `Cc1ccc(S(=O)(=O)N2CC3(CC(O)C3)C2)cc1-c1cnc(N)c(-n2cncn2)n1` [Example 101, 2-(3-(5-Amino-6-(1H-1,2,4-triazol-1-yl)pyrazin-2-yl)-4-methylphenylsulfonyl)-2-azaspiro[3.3]heptan-6-ol], the IC50 at PI 3-kinase alpha was 2000 nM; at PI 3-kinase beta it was 1700 nM; at Vps34, > 10000 nM; at PI 4-kinase beta, 2400 nM; on PI 3-kinase gamma it was 210 nM; on mTOR it was > 10000 nM. The half-maximal inhibitory concentration (IC50) on PI 3-kinase delta (read-out: Assay F PI3Kδ IC50) was determined as 3000 nM. Further, the “Assay M RLM CI(int)” value in data set [1] was 39 µL/min/mg.

As to `Cc1cc(C)c(S(=O)(=O)NCC(C)(C)O)cc1-c1cnc(N)c(-n2cncn2)n1` [Example 121, 5-(5-Amino-6-(1H-1,2,4-triazol-1-yl)pyrazin-2-yl)-N-(2-hydroxy-2-methylpropyl)-2,4-dimethylbenzenesulfonamide], the IC50 on PI 3-kinase alpha is 120 nM; at PI 3-kinase beta, 1200 nM; at Vps34 it was > 10000 nM; at PI 4-kinase beta, 510 nM; on PI 3-kinase gamma it was 92 nM; on mTOR, 5200 nM. At PI 3-kinase delta (read-out: Assay F PI3Kδ IC50), the 50% inhibitory concentration (IC50) was determined as 960 nM. Further, in data set [1], the “Assay M RLM CI(int)” value worked out at 31 µL/min/mg.

Turning to `Cc1ccc(S(=O)(=O)NC2CCC(CO)CC2)cc1-c1cnc(N)c(-n2cncn2)n1` (centres unmarked) [Example 127.6], the IC50 at PI 3-kinase alpha was 390 nM; on PI 3-kinase beta it was 2200 nM; on Vps34, > 10000 nM; at PI 4-kinase beta it was > 10000 nM; on PI 3-kinase gamma, 160 nM; on mTOR, > 10000 nM. Further, the half-inhibitory concentration (IC50) at PI 3-kinase delta (read-out: Assay F PI3Kδ IC50) was determined as 1500 nM. For the same compound, the “Assay M RLM CI(int)” value in data set [1] worked out at 20 µL/min/mg.

For the compound `Cc1ccc(S(=O)(=O)N2CCC(F)(F)CC2)cc1-c1cnc(N)c(-n2cncn2)n1` [Example 127.33], the IC50 on PI 3-kinase alpha was 740 nM; at PI 3-kinase beta it was > 10000 nM; at Vps34, > 10000 nM; on PI 4-kinase beta it was > 10000 nM; at PI 3-kinase gamma, 170 nM; on mTOR, > 10000 nM. Besides, the half-inhibitory concentration (IC50) on PI 3-kinase delta (read-out: Assay F PI3Kδ IC50) came out at 8700 nM. In addition, the “Assay M RLM CI(int)” value in data set [1] was determined as 560 µL/min/mg.

Regarding `Cc1ccc(S(=O)(=O)N2CCC(F)CC2)cc1-c1cnc(N)c(-n2cncn2)n1` [Example 127.34], the IC50 at PI 3-kinase alpha was 1500 nM; at PI 3-kinase beta, 5300 nM; on Vps34, > 10000 nM; at PI 4-kinase beta, 3000 nM; at PI 3-kinase gamma, 180 nM; on mTOR it was > 10000 nM. For the same compound, at PI 3-kinase delta (read-out: Assay F PI3Kδ IC50), the IC50 stood at 3200 nM. The “Assay M RLM CI(int)” value in data set [1] is 641 µL/min/mg.

Regarding `Cc1cc(-c2nc(-c3cc(S(=O)(=O)NC[C@@H](C)O)ccc3C)cnc2N)ccn1` [Example 129, (R)-3-(5-Amino-6-(2-methylpyridin-4-yl)pyrazin-2-yl)-N-(2-hydroxypropyl)-4-methyl benzene sulfonamide trifluoroacetic acid salt], the IC50 at PI 3-kinase alpha was 130 nM; at PI 3-kinase beta, 7300 nM; on Vps34, > 9100 nM; at PI 4-kinase beta it was > 9100 nM; on PI 3-kinase gamma, 24 nM; at mTOR, > 9100 nM. The half-maximal inhibitory concentration (IC50) on PI 3-kinase delta (read-out: Assay F PI3Kδ IC50) was determined as 550 nM. Also, the “Assay M RLM CI(int)” value in data set [1] is 28 µL/min/mg.

Take `Cc1cc(-c2nc(-c3cc(S(=O)(=O)NC[C@H](C)O)ccc3C)cnc2N)ccn1` [Example 129.9, (S)-3-(5-amino-6-(2-methylpyridin-4-yl)pyrazin-2-yl)-N-(2-hydroxypropyl)-4-methylbenzenesulfonamide]: the concentration for half-maximal inhibition (IC50) on PI 3-kinase alpha was 420 nM; at PI 3-kinase beta, 6900 nM; at Vps34 it was > 9100 nM; at PI 4-kinase beta, > 9100 nM; on PI 3-kinase gamma, 45 nM; on mTOR, > 9100 nM. In addition, at PI 3-kinase delta (read-out: Assay F PI3Kδ IC50), the IC50 turned out to be 940 nM. Further, the “Assay M RLM CI(int)” value in data set [1] was determined as 20 µL/min/mg.

Regarding `Cc1cc(-c2nc(-c3cc(S(=O)(=O)NCC(C)(C)CN(C)C)ccc3C)cnc2N)ccn1` [Example 129.24, 3-(5-amino-6-(2-methylpyridin-4-yl)pyrazin-2-yl)-N-(3-(dimethylamino)-2,2-dimethylpropyl)-4-methylbenzenesulfonamide], the IC50 on PI 3-kinase alpha is > 9100 nM; on PI 3-kinase beta, > 9100 nM; at Vps34, > 9100 nM; on PI 4-kinase beta it was > 9100 nM; at PI 3-kinase gamma, 200 nM; on mTOR, > 9100 nM. In addition, the IC50 at PI 3-kinase delta (read-out: Assay F PI3Kδ IC50) is 6600 nM. Further, the “Assay M RLM CI(int)” value in data set [1] is 755 µL/min/mg.

Regarding `Cc1cc(-c2nc(-c3cc(S(=O)(=O)NCCN4CCOCC4)ccc3C)cnc2N)ccn1` [Example 129.28, 3-(5-amino-6-(2-methylpyridin-4-yl)pyrazin-2-yl)-4-methyl-N-(2-morpholinoethyl)benzenesulfonamide], the 50% inhibitory concentration (IC50) at PI 3-kinase alpha was 260 nM; on PI 3-kinase beta it was 5300 nM; at Vps34 it was > 9100 nM; on PI 4-kinase beta, > 9100 nM; at PI 3-kinase gamma, 140 nM; at mTOR, > 9100 nM. In addition, the IC50 at PI 3-kinase delta (read-out: Assay F PI3Kδ IC50) is 1100 nM. Besides, in data set [1], the “Assay M RLM CI(int)” value worked out at 159 µL/min/mg.

On to `Cc1cc(-c2nc(-c3cc(S(=O)(=O)NCC(C)(C)N4CCOCC4)ccc3C)cnc2N)ccn1` [Example 129.29, 3-(5-amino-6-(2-methylpyridin-4-yl)pyrazin-2-yl)-4-methyl-N-(2-methyl-2-morpholinopropyl)benzenesulfonamide], for which the IC50 on PI 3-kinase alpha is 690 nM; on PI 3-kinase beta, 5400 nM; on Vps34, > 9100 nM; on PI 4-kinase beta, > 9100 nM; on PI 3-kinase gamma, 140 nM; at mTOR it was 6000 nM. Moreover, at PI 3-kinase delta (read-out: Assay F PI3Kδ IC50), the IC50 stood at 1200 nM. Moreover, the “Assay M RLM CI(int)” value in data set [1] was >924 µL/min/mg.

For `Cc1cc(-c2nc(-c3cc(S(=O)(=O)N[C@@H]4CCC[C@H]4N)ccc3C)cnc2N)ccn1` [Example 129.39, 3-(5-amino-6-(2-methylpyridin-4-yl)pyrazin-2-yl)-N-((1R,2R)-2-aminocyclopentyl)-4-methylbenzenesulfonamide], the IC50 was 730 nM at PI 3-kinase alpha; 7500 nM at PI 3-kinase beta; > 9100 nM at Vps34; > 9100 nM at PI 4-kinase beta; 110 nM on PI 3-kinase gamma; > 9100 nM at mTOR. In addition, the 50% inhibitory concentration (IC50) on PI 3-kinase delta was found to be 910 nM. For the same compound, in data set [1], the “Assay M RLM CI(int)” value is >924 µL/min/mg.

Turning to `Cc1cc(-c2nc(-c3cc(S(=O)(=O)N4CCC(N)CC4)ccc3C)cnc2N)ccn1` [Example 129.41, 5-(5-(4-aminopiperidin-1-ylsulfonyl)-2-methylphenyl)-3-(2-methylpyridin-4-yl)pyrazin-2-amine], the IC50 at PI 3-kinase alpha is 1600 nM; on PI 3-kinase beta it was 4000 nM; at Vps34 it was > 9100 nM; at PI 4-kinase beta, > 9100 nM; on PI 3-kinase gamma, 320 nM; at mTOR, > 9100 nM. For the same compound, the IC50 on PI 3-kinase delta (read-out: Assay F PI3Kδ IC50) is 2300 nM. In addition, in data set [1], the “Assay M RLM CI(int)” value came out at 13 µL/min/mg.

Regarding `Cc1ccc(S(=O)(=O)NCC(N)=O)cc1-c1cnc(N)c(-n2cncn2)n1` [Example 133, 2-(3-(5-Amino-6-(1H-1,2,4-triazol-1-yl)pyrazin-2-yl)-4-methylphenylsulfonamido)acetamide], the concentration for half-maximal inhibition (IC50) at PI 3-kinase alpha is 1020 nM; on PI 3-kinase beta, 7800 nM; at Vps34, > 9550 nM; at PI 4-kinase beta, 8900 nM; at PI 3-kinase gamma, 110 nM; at mTOR, > 9550 nM. In addition, at PI 3-kinase delta (read-out: Assay F PI3Kδ IC50), the half-maximal inhibitory concentration (IC50) was found to be 1140 nM. The “Assay M RLM CI(int)” value in data set [1] amounted to 19 µL/min/mg.
